# From ChEMBL document CHEMBL1201862, “PubChem BioAssay data set” (2004)
# Where “and” joins values, the source holds several entries; their conditions need not be identical. Equal entries are not always repeated.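 Tested at 5 concentrations; 48 h exposure; 96-well plates; endpoints linearly interpolated, else capped at highest concentration. GI50 = concentration required for 50% inhibition of growth.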 Calls of active or inactive are those of the source. Rule as the data show it: active = GI50 up to about 1.1 µM and inactive = higher.
# Columns and labels:
# Assay in all cases: NCI anticancer screen, dose series, 48 h
# SNB-78 = test system: SNB-78
# SF-539 = test system: SF-539
# EKVX = test system: EKVX
# HCC 2998 = test system: HCC 2998
# CCRF-CEM = test system: CCRF-CEM
# SK-MEL-2 = test system: SK-MEL-2
# KM-20L2 = test system: KM-20L2
# HOP-62 = test system: HOP-62
# OVCAR-4 = test system: OVCAR-4
# SK-MEL-5 = test system: SK-MEL-5
# Malme-3M = test system: Malme-3M
# OVCAR-5 = test system: OVCAR-5
# SF-295 = test system: SF-295
# RPMI-8226 = test system: RPMI-8226
# DU-145 = test system: DU-145
# A498 = test system: A498
# PC-3 = test system: PC-3
# TK-10 = test system: TK-10
# SF-268 = test system: SF-268
# UACC-257 = test system: UACC-257
SMILES,GI50 (SNB-78),GI50 (SF-539),GI50 (EKVX),GI50 (HCC 2998),GI50 (CCRF-CEM),GI50 (SK-MEL-2),GI50 (KM-20L2),GI50 (HOP-62),GI50 (OVCAR-4),GI50 (SK-MEL-5),GI50 (Malme-3M),GI50 (OVCAR-5),GI50 (SF-295),GI50 (RPMI-8226),GI50 (DU-145),GI50 (A498),GI50 (PC-3),GI50 (TK-10),GI50 (SF-268),GI50 (UACC-257)
Cc1c(Cl)cccc1NC(=O)CC1Sc2ccccc2NC1=O (stereo unspecified),30 µM (inactive) and 48.6 µM (inactive),17.9 µM (inactive) and 20.9 µM (inactive),46.9 µM (inactive) and 49.8 µM (inactive),14.3 µM (inactive) and 12 µM (inactive),68.4 µM (inactive) and 46.2 µM (inactive),16.4 µM (inactive) and 17.9 µM (inactive),24.6 µM (inactive) and 22.4 µM (inactive),10.1 µM (inactive) and 18.2 µM (inactive),22 µM (inactive) and 16.5 µM (inactive),14.2 µM (inactive) and 10.5 µM (inactive),19.5 µM (inactive) and 18.5 µM (inactive),48.9 µM (inactive) and 51.8 µM (inactive),37.5 µM (inactive) and 21.9 µM (inactive),23.9 µM (inactive) and 32.4 µM (inactive),53.7 µM (inactive),18.3 µM (inactive) and 16.5 µM (inactive),27.4 µM (inactive),,,
CCCCCCCCCCCCCC(=O)NO,19.8 µM (inactive),14.1 µM (inactive),21.4 µM (inactive),14.4 µM (inactive),0.158 µM (active),23.5 µM (inactive),7.64 µM (inactive),17.4 µM (inactive),6.79 µM (inactive),9.64 µM (inactive),32.1 µM (inactive),17.6 µM (inactive),21.4 µM (inactive),5 µM (inactive),3.35 µM (inactive),23.5 µM (inactive),4.32 µM (inactive),19.9 µM (inactive),7.78 µM (inactive),29.2 µM (inactive)
Cc1ccc(S(=O)(=O)ON=C2CC(c3ccccc3)N(C)C(c3ccccc3)C2)cc1 (stereo unspecified),19.1 µM (inactive) and 23.1 µM (inactive),17.1 µM (inactive),36.2 µM (inactive) and 35.2 µM (inactive),16.6 µM (inactive),18.5 µM (inactive) and 25.2 µM (inactive),15 µM (inactive),23 µM (inactive) and 18.4 µM (inactive),29 µM (inactive) and 29.8 µM (inactive),18.7 µM (inactive) and 17.4 µM (inactive),17.4 µM (inactive) and 16.3 µM (inactive),25.5 µM (inactive) and 21.1 µM (inactive),20.8 µM (inactive),25.9 µM (inactive) and 25.1 µM (inactive),18.3 µM (inactive),,24.3 µM (inactive),,21.8 µM (inactive) and 20.6 µM (inactive),22.8 µM (inactive) and 23.4 µM (inactive),18.9 µM (inactive) and 19.3 µM (inactive)
Cn1c(O)c(C(=O)Nc2ccc([N+](=O)[O-])cc2)c(=O)n(C)c1=S,2.18 µM (inactive),1.9 µM (inactive),2.9 µM (inactive),2.47 µM (inactive),2.38 µM (inactive),1.82 µM (inactive),4.21 µM (inactive),1.23 µM (inactive),2.71 µM (inactive),0.776 µM (active),2.11 µM (inactive),4.91 µM (inactive),1.31 µM (inactive),3.15 µM (inactive),2.02 µM (inactive),0.499 µM (active),1.34 µM (inactive),2.77 µM (inactive),2.64 µM (inactive),2.32 µM (inactive)
CC(C)(C)OC(=O)N1N=NC2C3OC(CC3=O)C21 (stereo unspecified),> 100 µM (inactive),> 100 µM (inactive),> 100 µM (inactive),> 100 µM (inactive),40.9 µM (inactive),> 100 µM (inactive),> 100 µM (inactive),> 100 µM (inactive),> 10 µM (inactive),> 10 µM (inactive),> 100 µM (inactive),> 100 µM (inactive),> 10 µM (inactive),> 100 µM (inactive),,> 100 µM (inactive),,> 100 µM (inactive),> 100 µM (inactive),> 100 µM (inactive)
Cc1ccccc1-c1c(N)nc(N)nc1C(=O)Nc1nccs1,> 100 µM (inactive),> 100 µM (inactive),> 100 µM (inactive),> 100 µM (inactive),> 100 µM (inactive),> 100 µM (inactive),> 100 µM (inactive),> 100 µM (inactive),> 100 µM (inactive),> 100 µM (inactive),> 100 µM (inactive),> 100 µM (inactive),> 100 µM (inactive),> 100 µM (inactive),,> 100 µM (inactive),,> 100 µM (inactive),> 100 µM (inactive),> 100 µM (inactive)
CCCCCCCCCCCCCC(=O)O[C@H]1CC[C@H](NC(=O)[C@H](OC)[C@H](O)[C@@H](O)[C@H](O)/C=C/C(C)C)C(=O)NC1 [BENGAMIDE A],> 10 µM (inactive),0.0197 µM (active),0.234 µM (active),0.117 µM (active),0.00512 µM (active),0.251 µM (active),0.0045 µM (active),0.235 µM (active),0.0255 µM (active),0.0105 µM (active),0.0148 µM (active),38.1 µM (inactive),0.0927 µM (active),0.00634 µM (active),0.731 µM (active),0.0389 µM (active),0.147 µM (active),0.0726 µM (active),0.00893 µM (active),0.0205 µM (active)
